The values below come from patent US8741856B2, “Avermectins and milbemycins for the treatment, prevention or amelioration of flavivirus infections” (priority 2009, dated 2014).

For series [1], the system named is YFV. Particulars: rhesus monkey, in vivo; cited from earlier work.
Another series has as its system DENV type 1. Particulars: rhesus monkeys infected with DENV type 1, therapeutic and prophylactic protocols; cited from earlier work.
Series [2] deals with Dengue virus (DENV) serotype 2 New Guinea C (NGC) strain. It counts as cell-based. Particulars: read-out: EC50, anti-DENV, virus yield reduction assay.
Series [3] concerns VERO-76 (Monkey normal kidney) monolayers.
Series [4] concerns MDBK (Bovine normal kidney) cells.
In series [5] the test system is JEV strain SA-14. The series is classed as cell-based, Japanese encephalitis virus.
The subject of the next series is Reovirus-1 (Reo-1). The series is classed as cell-based. Particulars: read-out: concentration required to achieve 50% protection from Reovirus-1 induced cytopathogenicity.
Series [6] deals with BHK cells (Hamster normal kidney fibroblast).
Series [7] concerns JEV strain SA-14. It counts as cell-based, Japanese encephalitis virus. Conditions: read-out: EC50, JEV, virus yield assay.
For series [8], the system named is Coxsackievirus B2 (CVB-2). The series is classed as cell-based. Conditions: read-out: concentration required to reduce the plaque number by 50%, CVB-2.
Series [9] has as its system YFV. It counts as cell-based, Yellow fever virus. Conditions: read-out: EC50, anti-YFV, virus yield reduction assay.
For a further series, the system named is Modoc (MODV) strain M544. The series is classed as cell-based, Modoc virus. Particulars: read-out: EC50, anti-MODV, virus yield reduction assay.
The next series has as its system Vaccinia Virus (VV). The series is classed as cell-based. Conditions: read-out: concentration required to reduce the plaque number by 50%, VV.
A further series deals with Poliovirus 1 (Sb-1). It counts as cell-based. Particulars: read-out: concentration required to reduce the plaque number by 50%, Sb-1.
The test system of series [10] is Bovine viral diharrea virus (BVDV). It counts as cell-based. Particulars: read-out: concentration required to achieve 50% protection from BVDV induced cytopathogenicity.
The conditions of series [11]: previous studies, Guzzo C A et al. 2002; cited from earlier work.
Series [12] has as its system TBEV strain Oshima 5-10. The series is classed as cell-based, Tick-borne encephalitis virus. Particulars: read-out: EC50, TBEV, virus yield assay.
The next series relates to Herpesvirus 1 (HSV-1). The series is classed as cell-based. Conditions: read-out: concentration required to reduce the plaque number by 50%, HSV-1.
Series [13] relates to Respiratory Syncytial Virus (RSV). It counts as cell-based. Conditions: read-out: concentration required to reduce the plaque number by 50%, RSV.
The subject of series [14] is TBEV strain Oshima 5-10. It counts as cell-based, Tick-borne encephalitis virus.
Series [15] deals with Vesicular Stomatitis Virus (VSV). The series is classed as cell-based. Conditions: read-out: concentration required to reduce the plaque number by 50%, VSV.
Series [16] relates to Dengue subgenomic replicons. Kind of series: Anti-DENV activity in BHK cells containing Dengue subgenomic replicons. The series is classed as cell-based, Dengue virus.
Series [17] deals with Yellow fever virus (YFV) 17D vaccine strain. It counts as cell-based. Conditions: read-out: EC50, anti-YFV, CPE reduction assay.

Where “and” joins values, the source holds several entries; their conditions need not be identical. Equal entries are not always repeated. Where two headings read alike, the source gives them in different places.

Regarding `NC(=O)c1ncn([C@@H]2O[C@H](CO)[C@@H](O)[C@H]2O)n1` [ribavirin, 1-beta-D-ribofuranosyl-1,2,4-triazole-3-carboxamide], the “effect on viremia or survival” value in the series on YFV [1] and in the series on DENV type 1 was “no effect on viremia or survival was observed” in each case.

As to ivermectin, the EC50 in series [2] is 0.71 µM; in the series on JEV strain SA-14 [5] (read-out: EC50, JEV, viral titer reduction assay) it was 0.3 µM; in the series with JEV strain SA-14 [5] (read-out: EC50, JEV, viral titration on BHK21 cells) it was 0.3 µM; in the series on Reovirus-1 (Reo-1) it was > 1.5 µM; in the series with JEV strain SA-14 [7], 0.1 to 1 µM; in series [8], > 6 µM. The EC50 in the series on YFV [9] was 0.0049 µM; with Modoc (MODV) strain M544, 0.73 µM; with Vaccinia Virus (VV), > 6 µM; in the series with Poliovirus 1 (Sb-1), > 6 µM; in [10], ~1.5 µM; in the series on TBEV strain Oshima 5-10 [12], 0.1 to 1 µM. For the same compound, the EC50 in the series with Herpesvirus 1 (HSV-1) was > 6 µM; in series [13], > 6 µM; with TBEV strain Oshima 5-10 [14] (read-out: EC50, TBEV, viral titer reduction assay) it was 0.2 µM; with TBEV strain Oshima 5-10 [14] (read-out: EC50, TBEV, viral titration on BHK21 cells) it was 0.2 µM; in [15], > 6 µM; in series [17], 0.0074 µM and 0.0103 µM. In [3], the “concentration required to reduce the viability of VERO 76 monolayers by 50%” value was 6 µM. Further, the “concentration required to reduce the viability of MDBK cells by 50%” value in [4] is 11 µM. The “concentration required to reduce the viability of BHK monolayers by 50%” value in [6] is 1.5 µM. For the same compound, the “dose that can be safely employed” value in series [11] was “up to 10 times the highest FDA-approved dose of 200 μg/kg”. Further, the “anti-DENV activity in replicon cells” value in series [16] is listed as “possess anti-DENV activity”.
